Results as given in PubChem BioAssay AID2060499 (Molecular Pharmacology Branch, DTP, NCI, 2025).

Test system: 777334-354-R2-J4-PDC tumor spheroids with HUVEC/MSC, viability
Experiment: Anticancer human tumor 777334-354-R2-J4-PDC patient-derived pancreatic adenocarcinoma cell line growth inhibition [GQUAD]
Settings: for IC50: curve of first compound; for viability, T/C: stronger effect = lower value
Outline: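 Viability of tumor cells grown as complex spheroids with endothelial and stromal cells, exposed to drug combinations. Top concentration at or near clinical Cmax (else 10 microM), diluted in half-log increments.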

[1] = second compound 0.0316 µM, first compound 0.000999 µM
[2] = second compound 0.0316 µM, first compound 0.00316 µM
[3] = second compound 0.0316 µM, first compound 0.00999 µM
[4] = second compound 0.0316 µM, first compound 0.0316 µM
[5] = second compound 0.0316 µM, first compound 0.0999 µM
[6] = second compound 0.0316 µM, first compound 0.316 µM
[7] = second compound 0.1 µM, first compound 0.000999 µM
[8] = second compound 0.1 µM, first compound 0.00316 µM
[9] = second compound 0.1 µM, first compound 0.00999 µM
[10] = second compound 0.1 µM, first compound 0.0316 µM
[11] = second compound 0.1 µM, first compound 0.0999 µM
[12] = second compound 0.1 µM, first compound 0.316 µM
[13] = second compound 0.316 µM, first compound 0.000999 µM
[14] = second compound 0.316 µM, first compound 0.00316 µM
[15] = second compound 0.316 µM, first compound 0.00999 µM
[16] = second compound 0.316 µM, first compound 0.0316 µM
[17] = second compound 0.316 µM, first compound 0.0999 µM
[18] = second compound 0.316 µM, first compound 0.316 µM
[19] = second compound 1 µM, first compound 0.000999 µM
[20] = second compound 1 µM, first compound 0.00316 µM
[21] = second compound 1 µM, first compound 0.00999 µM
[22] = second compound 1 µM, first compound 0.0316 µM
[23] = second compound 1 µM, first compound 0.0999 µM
[24] = second compound 1 µM, first compound 0.316 µM
[25] = second compound 3.16 µM, first compound 0.000999 µM
[26] = second compound 3.16 µM, first compound 0.00316 µM
[27] = second compound 3.16 µM, first compound 0.00999 µM
[28] = second compound 3.16 µM, first compound 0.0316 µM
[29] = second compound 3.16 µM, first compound 0.0999 µM
[30] = second compound 3.16 µM, first compound 0.316 µM
[31] = second compound 10 µM, first compound 0.000999 µM
[32] = second compound 10 µM, first compound 0.00316 µM
[33] = second compound 10 µM, first compound 0.00999 µM
[34] = second compound 10 µM, first compound 0.0316 µM
[35] = second compound 10 µM, first compound 0.0999 µM
[36] = second compound 10 µM, first compound 0.316 µM
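Also: spheroids exposed to compounds for 7 days before readout.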

CCc1c2c(nc3ccc(O)cc13)-c1cc3c(c(=O)n1C2)COC(=O)[C@]3(O)CC + Cc1cnc(CNC(=O)c2c(=O)c3ccc(N4CCCN(C)CC4)nc3n3c2sc2ccccc23)cn1 showed an IC50 (second compound 0.0316 µM) of 4.38 nM, an IC50 (second compound 0.1 µM) of 4.44 nM and an IC50 (second compound 0.316 µM) of 3.86 nM. The IC50 (second compound 1 µM) was 4.62 nM, the IC50 (second compound 3.16 µM) was 1.2 nM and the IC50 (second compound 10 µM) was 1.84 nM. It also gave a viability, T/C [1] of 84.8%, a viability, T/C [2] of 49.6% and a viability, T/C [3] of 39.5%. It also gave a viability, T/C [4] of 25.7%, a viability, T/C [5] of 13.8% and a viability, T/C [6] of 7.76%. For the same compound, the viability, T/C [7] was 84.4%, the viability, T/C [8] was 54.1% and the viability, T/C [9] was 38.1%. For the same compound, the viability, T/C [10] was 23.2%, the viability, T/C [11] was 17.4% and the viability, T/C [12] was 10.6%. It also gave a viability, T/C [13] of 63.6%, a viability, T/C [14] of 54.1% and a viability, T/C [15] of 37.1%. For the same compound, the viability, T/C [16] was 29%, the viability, T/C [17] was 19.1% and the viability, T/C [18] was 10.3%. It also gave a viability, T/C [19] of 56%, a viability, T/C [20] of 56.8% and a viability, T/C [21] of 40.6%. It also gave a viability, T/C [22] of 32.1%, a viability, T/C [23] of 16.7% and a viability, T/C [24] of 7.38%. It also gave a viability, T/C [25] of 49.5%, a viability, T/C [26] of 49.4% and a viability, T/C [27] of 40.1%. It also gave a viability, T/C [28] of 28.4%, a viability, T/C [29] of 13.8% and a viability, T/C [30] of 4.92%. The viability, T/C [31] was 57.5%, the viability, T/C [32] was 40.6% and the viability, T/C [33] was 33.6%. The viability, T/C [34] was 27.9%, the viability, T/C [35] was 0.34% and the viability, T/C [36] was 0.24%.
COc1ccc([C@@H](O)c2cc(-c3ncnc4cc(N5CCOCC5)ccc34)c(F)cc2Cl)nn1 + Cc1[nH]c2ccc(F)cc2c1-c1nc2c3cccnc3c3ncccc3c2[nH]1 gave an IC50 (second compound 0.0316 µM) of 3890 nM, an IC50 (second compound 0.1 µM) of 3880 nM and an IC50 (second compound 0.316 µM) of 3440 nM. For the same compound, the IC50 (second compound 1 µM) was 1890 nM, the IC50 (second compound 3.16 µM) was under 31.6 nM and the IC50 (second compound 10 µM) was under 31.6 nM. For the same compound, the viability, T/C [4] was 102%, the viability, T/C (second compound 0.0316 µM, first compound 0.1 µM) was 91% and the viability, T/C [6] was 95%. For the same compound, the viability, T/C (second compound 0.0316 µM, first compound 1 µM) was 76%, the viability, T/C (second compound 0.0316 µM, first compound 3.16 µM) was 54.5% and the viability, T/C (second compound 0.0316 µM, first compound 10 µM) was 30.3%. The viability, T/C [10] was 110%, the viability, T/C (second compound 0.1 µM, first compound 0.1 µM) was 98.8% and the viability, T/C [12] was 93%. For the same compound, the viability, T/C (second compound 0.1 µM, first compound 1 µM) was 71%, the viability, T/C (second compound 0.1 µM, first compound 3.16 µM) was 55.4% and the viability, T/C (second compound 0.1 µM, first compound 10 µM) was 30.5%. The viability, T/C [16] was 92.8%, the viability, T/C (second compound 0.316 µM, first compound 0.1 µM) was 92.9% and the viability, T/C [18] was 88.2%. The viability, T/C (second compound 0.316 µM, first compound 1 µM) was 80.3%, the viability, T/C (second compound 0.316 µM, first compound 3.16 µM) was 51.4% and the viability, T/C (second compound 0.316 µM, first compound 10 µM) was 28.9%. It also gave a viability, T/C [22] of 79.9%, a viability, T/C (second compound 1 µM, first compound 0.1 µM) of 89.9% and a viability, T/C [24] of 76.8%. It also gave a viability, T/C (second compound 1 µM, first compound 1 µM) of 61.8%, a viability, T/C (second compound 1 µM, first compound 3.16 µM) of 40.6% and a viability, T/C (second compound 1 µM, first compound 10 µM) of 22.2%. It also gave a viability, T/C [28] of 46.1%, a viability, T/C (second compound 3.16 µM, first compound 0.1 µM) of 43.4% and a viability, T/C [30] of 36.7%. The viability, T/C (second compound 3.16 µM, first compound 1 µM) was 17.7%, the viability, T/C (second compound 3.16 µM, first compound 3.16 µM) was 13.6% and the viability, T/C (second compound 3.16 µM, first compound 10 µM) was 9.99%. The viability, T/C [34] was 35.4%, the viability, T/C (second compound 10 µM, first compound 0.1 µM) was 29.1% and the viability, T/C [36] was 27.8%. It also gave a viability, T/C (second compound 10 µM, first compound 1 µM) of 15.2%, a viability, T/C (second compound 10 µM, first compound 3.16 µM) of 13% and a viability, T/C (second compound 10 µM, first compound 10 µM) of 12.6%.
Cc1[nH]c2ccccc2c1CCNCc1ccc(/C=C/C(=O)NO)cc1 + CN(C)c1ccc(Nc2c3ccc(NC(=O)CCN4CCCC4)cc3nc3cc(NC(=O)CCN4CCCC4)ccc23)cc1 gave an IC50 (second compound 0.0316 µM) of 202 nM, an IC50 (second compound 0.1 µM) of 185 nM and an IC50 (second compound 0.316 µM) of 220 nM. For the same compound, the IC50 (second compound 1 µM) was 214 nM, the IC50 (second compound 3.16 µM) was 175 nM and the IC50 (second compound 10 µM) was 104 nM. For the same compound, the viability, T/C [1] was 104%, the viability, T/C [2] was 83.1% and the viability, T/C [3] was 97.8%. For the same compound, the viability, T/C [4] was 90.5%, the viability, T/C [5] was 75.8% and the viability, T/C [6] was 33.4%. For the same compound, the viability, T/C [7] was 108%, the viability, T/C [8] was 84.8% and the viability, T/C [9] was 103%. It also gave a viability, T/C [10] of 86.2%, a viability, T/C [11] of 73.2% and a viability, T/C [12] of 30.8%. It also gave a viability, T/C [13] of 92.3%, a viability, T/C [14] of 88.4% and a viability, T/C [15] of 99.5%. The viability, T/C [16] was 88.9%, the viability, T/C [17] was 79.6% and the viability, T/C [18] was 36.4%. The viability, T/C [19] was 84.8%, the viability, T/C [20] was 86.9% and the viability, T/C [21] was 88.3%. It also gave a viability, T/C [22] of 79%, a viability, T/C [23] of 71.9% and a viability, T/C [24] of 38.9%. It also gave a viability, T/C [25] of 90.6%, a viability, T/C [26] of 86.9% and a viability, T/C [27] of 89%. The viability, T/C [28] was 79.5%, the viability, T/C [29] was 66.1% and the viability, T/C [30] was 33.5%. The viability, T/C [31] was 77%, the viability, T/C [32] was 80.1% and the viability, T/C [33] was 80.6%. The viability, T/C [34] was 70.4%, the viability, T/C [35] was 51.2% and the viability, T/C [36] was 26.4%.
